Test results from paper PMC9578143, “Small-Molecule Ebselen Binds to YTHDF Proteins Interfering with the Recognition of N^6-Methyladenosine-Modified RNAs” (ACS Pharmacology & Translational Science, 2022).

Tests used:
[1] = tested on: PC-3 cells; test: Cell viability assay (OZBlue); type: cell-based; conditions: Homo sapiens
Procedure: PC-3 cells were seeded and treated in 96 plates for 24, 48, and 72 h. Cell viability was assessed by adding to the cells 10% of the culture medium volume of the OZBlue reagent (OZ Biosciences). Cells were incubated at 37 °C for 1 h. Fluorescence was then determined (excitation 560 nm and emission 590 nm) by a Tecan microplate reader. Cell survival was calculated with respect to control (DMSO), and IC50 values were determined by fitting with GraphPad Prism software.

[2] = molecular target: T1, YTHDF2-bound mRNAs (PEG10, NOTCH2, CREBBP) in PC-3 cells (Homo sapiens, UniProt Q9Y5A9); test: Ribonucleoprotein immunoprecipitation (RIP) followed by qRT-PCR; type: cell-based; conditions: 25 μM, 24 h, versus DMSO
T1 construct: endogenous in cells; host or cells: PC-3
T1 sequence (Q9Y5A9 1-579): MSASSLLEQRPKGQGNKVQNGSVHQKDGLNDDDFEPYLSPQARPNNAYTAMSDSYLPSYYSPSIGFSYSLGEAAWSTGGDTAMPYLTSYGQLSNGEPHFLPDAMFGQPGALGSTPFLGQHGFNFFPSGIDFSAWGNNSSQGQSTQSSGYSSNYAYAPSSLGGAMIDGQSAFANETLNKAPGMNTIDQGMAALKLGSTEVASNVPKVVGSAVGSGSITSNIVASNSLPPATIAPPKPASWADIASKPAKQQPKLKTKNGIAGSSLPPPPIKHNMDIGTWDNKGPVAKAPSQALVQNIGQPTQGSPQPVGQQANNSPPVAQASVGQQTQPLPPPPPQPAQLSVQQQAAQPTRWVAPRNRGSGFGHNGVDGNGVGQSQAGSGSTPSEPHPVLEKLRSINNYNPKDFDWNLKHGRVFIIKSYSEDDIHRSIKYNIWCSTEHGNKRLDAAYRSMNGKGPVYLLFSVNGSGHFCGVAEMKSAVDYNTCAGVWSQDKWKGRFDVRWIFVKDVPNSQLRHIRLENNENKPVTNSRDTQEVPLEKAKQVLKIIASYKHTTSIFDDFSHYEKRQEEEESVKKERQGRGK
Procedure: Five million cells were used for each RIP experiment followed by qRT-PCR,[65] without cross-linking steps and using 1–15 μg of the YTHDF2 antibody (Proteintech, 24744-1-AP) or the same amount of the rabbit normal IgG isotype (negative control, Cell Signaling, 2729S). Cells were harvested after 24 h of treatment with 25 μM ebselen and DMSO as the control, lysed with 20 mM Tris–HCl at pH 7.5, 100 mM KCl, 5 mM MgCl2, and 0.5% NP-40 for 10 min on ice, and centrifuged at 15,000g for 10 min at 4 °C. Lysates were then incubated with Dynabead A/G (Thermo Fisher, 10001D/10003D) for pre-clearing for 1 h at 4 °C and then with Dynabeads A/G (80/20 ratio) at RT for 1 h with YTHDF2 or rabbit isotype IgG for Ab coating. After the pre-clearing steps and the coating, lysates were split between YTHDF2 and IgG-coated beads, while 1–5% of the lysate was stored as the input and incubated O/N at 4 °C. Finally, samples were washed with NT2 buffer for five times, 5 min each at 4 °C. […] For each condition, the ΔCt value of IgG and YTHDF2 was evaluated in triplicate. Normalization of the values was then carried out following the percent input method, in which values from IgG and YTHDF2 IP were calculated as % input of the adjusted input values. […] YTHDF2 and IgG fractions were calculated as % input by subtracting to the adjusted input values their ΔCt values. […]

O=c1c2ccccc2[se]n1-c1ccccc1 [Compound 1, 2-phenyl-1,2-benzisoselenazol-3(2H)-one]
IC50 ([1]; 24 h): 58.8 µM
IC50 ([1]; 48 h): 49.6 µM
IC50 ([1]; 72 h): 26.8 µM
YTHDF2-bound target mRNA levels (RIP, in words) [2]: decrease of the mRNA levels compared to control samples
